According to the supplement of paper PMC13380429:

How the values were obtained:
[1] = system: A549-ACE2 infected with SARS-CoV-2; experiment: cell count relative to DMSO; higher = less toxic; conditions: 24 h
Caco-2 [2] = experiment: cell viability relative to DMSO; higher = less toxic; conditions: 72 h
Calu-3 [3] = experiment: as above; conditions: 72 h
HepG2 [4] = experiment: as above; conditions: 72 h
U2OS [5] = experiment: as above; conditions: 72 h
Vero E6 [6] = experiment: as above; conditions: 72 h
[7] = system: A549-ACE2 infected with SARS-CoV-2; experiment: SARS-CoV-2 infection rate relative to DMSO; higher = more infection; conditions: 24 h
A549-ACE2 [8] = experiment: phospholipidosis EC50; higher = less potent phospholipidosis inducer
A549-ACE2 [9] = experiment: drug-induced phospholipidosis relative to tamoxifen; higher = more phospholipidosis
[10] = system: A549-ACE2 infected with SARS-CoV-2; experiment: morphology score (similarity to uninfected cells); higher = more like uninfected cells; conditions: 24 h
Calu-3 [11] = experiment: relative viability EC50 (midpoint between 100% and the lowest measured viability); higher = less toxic; conditions: 72 h
HepG2 [12] = experiment: as above; conditions: 72 h
Vero E6 [13] = experiment: as above; conditions: 72 h
Caco-2 [14] = experiment: drug sensitivity score (DSS) for viability; higher = more toxic; extreme values may be limits of the assay; conditions: 72 h
Calu-3 [15] = experiment: as above; conditions: 72 h
HepG2 [16] = experiment: as above; conditions: 72 h
U2OS [17] = experiment: as above; conditions: 72 h
Vero E6 [18] = experiment: as above; conditions: 72 h
Caco-2 [19] = experiment: relative viability EC50 (midpoint between 100% and the lowest measured viability); higher = less toxic; conditions: 72 h
U2OS [20] = experiment: as above; conditions: 72 h

CCN(CC)CC1CCN(c2ncc3ncnc(Nc4ccc(F)c(Cl)c4)c3n2)CC1 [BIBU-1361]
Conditions	SARS-CoV-2 infection rate [%]	cell count [%]	cell viability [%]	morphology score	phospholipidosis EC50 [µM]
A549-ACE2 [8], 24 h	–	–	–	–	3.2
A549-ACE2 [8], 48 h	–	–	–	–	3.88
A549-ACE2 [8], 72 h	–	–	–	–	3.9
Caco-2 [2], 1 nM	–	–	98	–	–
Caco-2 [2], 10 nM	–	–	85.1	–	–
Caco-2 [2], 100 nM	–	–	103	–	–
Caco-2 [2], 1000 nM	–	–	74.1	–	–
Caco-2 [2], 10000 nM	–	–	50.3	–	–
Calu-3 [3], 1 nM	–	–	100	–	–
Calu-3 [3], 10 nM	–	–	100	–	–
Calu-3 [3], 100 nM	–	–	90.7	–	–
Calu-3 [3], 1000 nM	–	–	56.7	–	–
Calu-3 [3], 10000 nM	–	–	8.7	–	–
HepG2 [4], 1 nM	–	–	100	–	–
HepG2 [4], 10 nM	–	–	100	–	–
HepG2 [4], 100 nM	–	–	106	–	–
HepG2 [4], 1000 nM	–	–	90	–	–
HepG2 [4], 10000 nM	–	–	40.4	–	–
U2OS [5], 1 nM	–	–	100	–	–
U2OS [5], 10 nM	–	–	104	–	–
U2OS [5], 100 nM	–	–	101	–	–
U2OS [5], 1000 nM	–	–	96.6	–	–
U2OS [5], 10000 nM	–	–	57.3	–	–
Vero E6 [6], 1 nM	–	–	97.3	–	–
Vero E6 [6], 10 nM	–	–	96.4	–	–
Vero E6 [6], 100 nM	–	–	93.1	–	–
Vero E6 [6], 1000 nM	–	–	63.2	–	–
Vero E6 [6], 10000 nM	–	–	42.9	–	–
[1], 0.3 µM	–	105	–	–	–
[1], 3 µM	–	117	–	–	–
[1], 10 µM	–	122	–	–	–
[1], 30 µM	–	72	–	–	–
[7], 0.3 µM	98	–	–	–	–
[7], 3 µM	26	–	–	–	–
[7], 10 µM	27	–	–	–	–
[7], 30 µM	90	–	–	–	–
[10], 0.3 µM	–	–	–	0.01	–
[10], 3 µM	–	–	–	0.87	–
[10], 10 µM	–	–	–	0.28	–
[10], 30 µM	–	–	–	-0.37	–

drug-induced phospholipidosis [%], A549-ACE2 [9]
Conditions	0.3 µM	0.833333 µM	3.33333 µM	6.66667 µM	10 µM	30 µM
24 h	2.83	15.5	75.3	121	120	99.8
48 h	4.06	11.5	65.6	111	126	–
72 h	4.98	9.71	51.2	111	123	–

Conditions	drug sensitivity score	relative viability EC50 [µM]
Caco-2 [14]	5.9	–
Calu-3 [11]	–	1.02
Calu-3 [15]	10.1	–
HepG2 [12]	–	1.89
HepG2 [16]	4.9	–
U2OS [17]	2.7	–
Vero E6 [13]	–	0.573
Vero E6 [18]	7.8	–

Cc1ccc(C(=O)Nc2cccc(C(F)(F)F)c2)cc1Nc1nc(-c2cccnc2)nc2c1cnn2C [NVP-BHG712]
Conditions	SARS-CoV-2 infection rate [%]	cell count [%]	cell viability [%]	morphology score	phospholipidosis EC50 [µM]
A549-ACE2 [8], 24 h	–	–	–	–	1.65
A549-ACE2 [8], 48 h	–	–	–	–	2.21
A549-ACE2 [8], 72 h	–	–	–	–	3.75
Caco-2 [2], 1 nM	–	–	93.9	–	–
Caco-2 [2], 10 nM	–	–	93.5	–	–
Caco-2 [2], 100 nM	–	–	101	–	–
Caco-2 [2], 1000 nM	–	–	96.6	–	–
Caco-2 [2], 10000 nM	–	–	107	–	–
Calu-3 [3], 1 nM	–	–	100	–	–
Calu-3 [3], 10 nM	–	–	95.2	–	–
Calu-3 [3], 100 nM	–	–	96.3	–	–
Calu-3 [3], 1000 nM	–	–	108	–	–
Calu-3 [3], 10000 nM	–	–	102	–	–
HepG2 [4], 1 nM	–	–	117	–	–
HepG2 [4], 10 nM	–	–	104	–	–
HepG2 [4], 100 nM	–	–	96.5	–	–
HepG2 [4], 1000 nM	–	–	48.6	–	–
HepG2 [4], 10000 nM	–	–	74.1	–	–
U2OS [5], 1 nM	–	–	95.7	–	–
U2OS [5], 10 nM	–	–	94.3	–	–
U2OS [5], 100 nM	–	–	109	–	–
U2OS [5], 1000 nM	–	–	95.5	–	–
U2OS [5], 10000 nM	–	–	105	–	–
Vero E6 [6], 1 nM	–	–	96.5	–	–
Vero E6 [6], 10 nM	–	–	102	–	–
Vero E6 [6], 100 nM	–	–	98.1	–	–
Vero E6 [6], 1000 nM	–	–	109	–	–
Vero E6 [6], 10000 nM	–	–	108	–	–
[1], 0.3 µM	–	98	–	–	–
[1], 3 µM	–	111	–	–	–
[1], 10 µM	–	69	–	–	–
[1], 30 µM	–	93	–	–	–
[7], 0.3 µM	99	–	–	–	–
[7], 3 µM	68	–	–	–	–
[7], 10 µM	41	–	–	–	–
[7], 30 µM	84	–	–	–	–
[10], 0.3 µM	–	–	–	-0.1	–
[10], 3 µM	–	–	–	0.35	–
[10], 10 µM	–	–	–	0.14	–
[10], 30 µM	–	–	–	0.25	–

drug-induced phospholipidosis [%], A549-ACE2 [9]
Conditions	0.3 µM	0.833333 µM	3.33333 µM	6.66667 µM	10 µM	30 µM
24 h	3.95	19.7	113	126	120	138
48 h	7.5	21.5	139	176	183	–
72 h	7.15	18.8	137	208	244	–

Conditions	drug sensitivity score	relative viability EC50 [µM]
Caco-2 [14]	0	–
Caco-2 [19]	–	> 10
Calu-3 [11]	–	> 10
Calu-3 [15]	0	–
HepG2 [12]	–	0.264
HepG2 [16]	9.9	–
U2OS [17]	0	–
U2OS [20]	–	> 10
Vero E6 [13]	–	> 10
Vero E6 [18]	0	–
